Laboratory results published in ChEMBL document CHEMBL1142151, “Association of QnrB determinants and production of extended-spectrum beta-lactamases or plasmid-mediated AmpC beta-lactamases in clinical isolates of Klebsiella pneumoniae” (2007).
In brackets after ≈: the same amount, converted by molar mass.

Legend:
Type in all cases: functional
Escherichia coli [1] = test: Inhibitory activity against azide-resistant Escherichia coli J53
Escherichia coli [2] = test: Inhibitory activity against Escherichia coli 12-1502
Klebsiella pneumoniae [3] = test: Inhibitory activity against Klebsiella pneumoniae 12-1183
Escherichia coli [4] = test: Inhibitory activity against azide-resistant Escherichia coli J53 T12-1183
Klebsiella pneumoniae [5] = test: Inhibitory activity against Klebsiella pneumoniae 35
Escherichia coli [6] = test: Inhibitory activity against azide-resistant Escherichia coli J53 T35
Klebsiella pneumoniae [7] = test: Inhibitory activity against Klebsiella pneumoniae 07-006
Escherichia coli [8] = test: Inhibitory activity against azide-resistant Escherichia coli J53 T07-006
Klebsiella pneumoniae [9] = test: Inhibitory activity against Klebsiella pneumoniae 03-222
Escherichia coli [10] = test: Inhibitory activity against azide-resistant Escherichia coli J53 T03-222
Escherichia coli [11] = test: Inhibitory activity against azide-resistant Escherichia coli J53 T12-1502

Compound	MIC (Escherichia coli [1])	MIC (Escherichia coli [2])	MIC (Klebsiella pneumoniae [3])	MIC (Escherichia coli [4])	MIC (Klebsiella pneumoniae [5])	MIC (Escherichia coli [6])	MIC (Klebsiella pneumoniae [7])	MIC (Escherichia coli [8])	MIC (Klebsiella pneumoniae [9])	MIC (Escherichia coli [10])	MIC (Escherichia coli [11])
CO[C@@]1(NC(=O)Cc2cccs2)C(=O)N2C(C(=O)O)=C(COC(N)=O)CS[C@@H]21 [CEFOXITIN]	4 µg/mL (≈ 9.36 µM)	> 128 µg/mL	> 128 µg/mL	32 µg/mL (≈ 74.9 µM)	32 µg/mL (≈ 74.9 µM)	4 µg/mL (≈ 9.36 µM)	16 µg/mL (≈ 37.4 µM)	4 µg/mL (≈ 9.36 µM)	16 µg/mL (≈ 37.4 µM)	4 µg/mL (≈ 9.36 µM)	> 128 µg/mL
O=C(O)c1cn(C2CC2)c2cc(N3CCNCC3)c(F)cc2c1=O [CIPROFLOXACIN]	–	–	> 16 µg/mL	–	16 µg/mL (≈ 48.3 µM)	–	16 µg/mL (≈ 48.3 µM)	–	16 µg/mL (≈ 48.3 µM)	–	–
CO/N=C(\C(=O)N[C@@H]1C(=O)N2C(C(=O)O)=C(COC(C)=O)CS[C@H]12)c1csc(N)n1 [CEFOTAXIME]	< 0.25 µg/mL	64 µg/mL (≈ 141 µM)	16 µg/mL (≈ 35.1 µM)	4 µg/mL (≈ 8.78 µM)	> 128 µg/mL	16 µg/mL (≈ 35.1 µM)	64 µg/mL (≈ 141 µM)	16 µg/mL (≈ 35.1 µM)	4 µg/mL (≈ 8.78 µM)	2 µg/mL (≈ 4.39 µM)	64 µg/mL (≈ 141 µM)
COc1c(N2C[C@@H]3CCCN[C@@H]3C2)c(F)cc2c(=O)c(C(=O)O)cn(C3CC3)c12 [MOXIFLOXACIN]	–	0.5 µg/mL (≈ 1.25 µM)	> 8 µg/mL	1 µg/mL (≈ 2.49 µM)	> 8 µg/mL	0.5 µg/mL (≈ 1.25 µM)	8 µg/mL (≈ 19.9 µM)	1 µg/mL (≈ 2.49 µM)	8 µg/mL (≈ 19.9 µM)	0.5 µg/mL (≈ 1.25 µM)	0.5 µg/mL (≈ 1.25 µM)
CCn1cc(C(=O)O)c(=O)c2ccc(C)nc21 [NALIDIXIC ACID]	8 µg/mL (≈ 34.4 µM)	16 µg/mL (≈ 68.9 µM)	> 64 µg/mL	32 µg/mL (≈ 138 µM)	> 64 µg/mL	32 µg/mL (≈ 138 µM)	> 64 µg/mL	32 µg/mL (≈ 138 µM)	> 64 µg/mL	32 µg/mL (≈ 138 µM)	32 µg/mL (≈ 138 µM)
CC(C)(O/N=C(\C(=O)N[C@@H]1C(=O)N2C(C(=O)[O-])=C(C[n+]3ccccc3)CS[C@H]12)c1csc(N)n1)C(=O)O [CEFTAZIDIME]	1 µg/mL (≈ 1.83 µM)	128 µg/mL (≈ 234 µM)	128 µg/mL (≈ 234 µM)	128 µg/mL (≈ 234 µM)	> 128 µg/mL	128 µg/mL (≈ 234 µM)	128 µg/mL (≈ 234 µM)	128 µg/mL (≈ 234 µM)	128 µg/mL (≈ 234 µM)	64 µg/mL (≈ 117 µM)	64 µg/mL (≈ 117 µM)
C[C@H]1COc2c(N3CCN(C)CC3)c(F)cc3c(=O)c(C(=O)O)cn1c23.C[C@H]1COc2c(N3CCN(C)CC3)c(F)cc3c(=O)c(C(=O)O)cn1c23.O [LEVOFLOXACIN]	–	0.25 µg/mL	> 16 µg/mL	–	4 µg/mL	0.25 µg/mL	8 µg/mL	0.25 µg/mL	16 µg/mL	0.25 µg/mL	0.25 µg/mL
